Assay results from PMC3335822 (PLoS ONE, 2012).

What was measured:
Eya3(ED) = molecular target: T1, Eya3(ED) (Mus musculus, UniProt P97480); experiment: pNPP hydrolysis by the catalytic domain of Eya3; assay type: biochemical; details: substrate pNPP 3.4 mM, pH 6, 30°C, 30 minutes
T1 construct: The catalytic domain (ED) of mouse Eyes Absent 3 (Eya3(223–510)) was purified; made in house
T1 sequence (P97480 223-510): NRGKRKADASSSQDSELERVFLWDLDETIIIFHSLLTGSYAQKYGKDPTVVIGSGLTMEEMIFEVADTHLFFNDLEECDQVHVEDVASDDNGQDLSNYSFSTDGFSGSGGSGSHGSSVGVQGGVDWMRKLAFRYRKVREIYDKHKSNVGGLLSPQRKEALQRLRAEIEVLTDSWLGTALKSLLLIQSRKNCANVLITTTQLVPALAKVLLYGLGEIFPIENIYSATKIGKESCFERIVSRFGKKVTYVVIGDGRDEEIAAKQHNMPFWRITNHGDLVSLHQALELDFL
Excerpt: (§1) The catalytic domain (ED) of mouse Eyes Absent 3 (Eya3(223–510)) was purified as described before. Human Eyes Absent 3 isoform 2 (representing the major species identified in human cell lines by mass spectrometry and residues 127–573 of NM_001990, isoform 1) was sub-cloned into pDEST565 to express a poly-histidine- Glutathione-S-transferase (His-GST) tagged fusion protein with a TVMV protease site. The protein was purified by glutathione-S-transferase affinity chromatography followed by TVMV cleavage, Ni-NTA chromatography, and finally size exclusion chromatography.
The NCI Diversity Set II was obtained from the NCI in 96-well trays from the NIH Molecular Libraries Program and stored as 10 mM stocks in DMSO. An initial manual screen was conducted using the previously described p-nitrophenylphosphate assay and mouse Eya3(223–510) in a reaction mixture containing 20 mM MES pH 6, 2 mM MgCl2, 125 μM inhibitor, 3.4 mM para-nitrophenol phosphate (pNPP) and 0.01 μg/µL enzyme.
(§2) Compounds were dissolved in DMSO and diluted as needed. […] Reactions were incubated at 30°C for 30 minutes and quenched with 100 mM EDTA pH 10. IC50 values were then calculated directly from regression curves using PRISM. All reported values are the mean of two independent experiments.

human EYA3 = molecular target: T2, human EYA3 (Homo sapiens, UniProt Q99504); experiment: pNPP hydrolysis by full-length EYA3; assay type: biochemical; details: full-length human EYA3, substrate pNPP
T2 construct: residues 127–573 of NM_001990, isoform 1; His-GST (poly-histidine, glutathione-S-transferase) with TVMV protease site (cleaved yes); made in house
T2 sequence (Q99504 127-573): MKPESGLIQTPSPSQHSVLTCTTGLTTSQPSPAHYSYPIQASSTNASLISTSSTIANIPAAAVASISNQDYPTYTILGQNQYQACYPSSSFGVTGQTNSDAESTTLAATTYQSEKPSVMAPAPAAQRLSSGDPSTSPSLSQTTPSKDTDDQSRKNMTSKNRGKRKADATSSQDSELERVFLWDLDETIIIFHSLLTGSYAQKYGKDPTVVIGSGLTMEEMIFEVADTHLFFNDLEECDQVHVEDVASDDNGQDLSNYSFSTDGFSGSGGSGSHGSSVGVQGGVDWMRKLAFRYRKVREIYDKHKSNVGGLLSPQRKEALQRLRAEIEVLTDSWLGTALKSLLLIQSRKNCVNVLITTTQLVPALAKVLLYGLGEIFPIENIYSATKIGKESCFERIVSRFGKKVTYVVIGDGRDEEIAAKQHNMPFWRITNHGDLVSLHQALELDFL
Excerpt: as §1, with “chromatography. […]” for “chromatography.”
as §2

PTP1B = molecular target: T3, PTP1B (Homo sapiens, UniProt P18031); experiment: pNPP hydrolysis by PTP1B; assay type: biochemical; details: for IC50: substrate pNPP
T3 construct: made in house
T3 sequence (P18031 1-435): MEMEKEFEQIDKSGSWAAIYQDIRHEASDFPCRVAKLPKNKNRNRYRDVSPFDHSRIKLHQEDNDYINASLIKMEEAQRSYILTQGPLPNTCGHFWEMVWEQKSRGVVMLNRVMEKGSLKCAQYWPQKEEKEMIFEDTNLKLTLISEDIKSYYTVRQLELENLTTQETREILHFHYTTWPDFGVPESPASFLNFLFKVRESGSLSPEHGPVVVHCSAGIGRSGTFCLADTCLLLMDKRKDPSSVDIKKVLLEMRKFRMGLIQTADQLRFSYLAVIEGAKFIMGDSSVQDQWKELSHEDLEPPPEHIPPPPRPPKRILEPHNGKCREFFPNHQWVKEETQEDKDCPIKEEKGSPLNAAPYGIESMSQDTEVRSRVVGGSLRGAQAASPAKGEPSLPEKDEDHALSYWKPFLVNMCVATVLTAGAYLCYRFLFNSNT
Description: The catalytic domain of human Eyes Absent 2 was similarly sub-cloned as a poly-histidine fusion construct in the vector pDEST-527. Fusion protein was purified by Ni-NTA chromatography and followed by size-exclusion chromatography over a Superdex-75 column. The relative purity of protein samples was determined using SDS-PAGE. PTP1B was purified as described previously.
as §2

[1] = cited from earlier work
MCF10A-EYA2 cells = experiment: Transwell migration of MCF10A cells over-expressing EYA2; assay type: cell-based; details: 7.5 μM
Description: (§3) Human umbilical vein endothelial cells (HUVECs) were purchased from Lonza (Walkersville, MD) and maintained in the endothelial cell growth medium (PromoCell, Heidelberg, Germany), under a 5% CO2 atmosphere. MCF10A cells from ATCC were stably transfected with either pcDNA 3.2/V5-DEST (vector control), V5-EYA2 or V5-EYA2(mut). Transwell migration experiments were performed as previously described.

HUVECs [2] = experiment: HUVEC transwell migration; assay type: cell-based, human; details: 5 μM
Description: as §3

HUVECs [3] = experiment: HUVEC tubulogenesis assay on Matrigel; assay type: cell-based, human; details: up to 7.5 μM
Description: Tubulogenesis assays were performed in 15-well micro-slide (ibidi LLC, Verona WI), using growth factor-reduced matrigel (BD Bioscience, Billerica, MA). The matrix was prepared by loading 10 μl of matrigel in each micro-slide well and allowing it to solidify for 30 minutes at 37°C. HUVECs were trypsinized and resuspended at 100,000 cell/ml in EBM +2.5% FBS. 50 μl (5,000 cell) were loaded on top of the solidified matrigel and the preparation was incubated for 20 hours at 37°C in a humidified incubator in a 5% CO2 atmosphere. Bright field images were taken using an inverted microscope at 2.5× magnification, which allowed imaging of the whole well in two pictures that were later merged in Photoshop. Tubular structures were traced and counted using NeuroJ (NIH, USA). In experiments with inhibitor, the inhibitor was added to the cell suspension before loading. Each sample was loaded in triplicate, and each treatment was repeated for reproducibility.

mouse aortic rings = experiment: Mouse aortic ring assay (ex vivo sprouting angiogenesis, VEGF-stimulated); details: 5 μM, 10 days
Description: The preparation of rat collagen and the aortic ring assay were carried out as previously described, [50]. Mice were 4 to 6 week old female C57BL/6, and aortic ring explants were cultured at 37°C in a humidified incubator under a 5% CO2 atmosphere.
Each inhibitor was serially diluted (between 0.25 mM and 7.5 mM) to stocks of 1000× the working concentrations in sterile 100% DMSO in order to achieve an equal final concentration of DMSO (0.1% v/v) in all culture conditions. For the experiments, the compounds were diluted in EBM containing 2.5% FBS, penicillin/streptomycin and 20 ng/ml VEGF165 (R&D Systems, Minneapolis, MN). Each compound was applied from the first day of culture over a 10-day period with medium change every two days. In all experiments, the vehicle (DMSO, 0.1%) was used as control. The sprouting density was derived from counting the number of branches per ring, and the extent of angiogenic sprouting was estimated by measuring the total surface area covered by the vessels.

zebrafish embryos = experiment: Analysis of zebrafish vasculature, Tg(kdrl:EGFP) embryos; assay type: in vivo; details: exposure from about 5 hpf, analysis at 28–30 hpf
Description: Tg(kdrl:EGFP)^s843 zebrafish line was used for vascular analysis. Embryos were maintained in fish water until the 50% epiboly stage (5.25 hpf) and were transferred into wells of 24-well plate containing the inhibitors in fish water. All incubation was performed at 28.5°C. The analysis for vascular defects was performed at the 28–30 hpf stages, and embryos were imaged using a fluorescence microscope.

Compound | IC50 (Eya3(ED)) [µM] | IC50 (human EYA3) [µM] | IC50 (PTP1B) [µM] | selectivity EYA3 versus PTP1B, in words (PTP1B; pNPP hydrolysis) | half-life [1] [h] | effect on migration of MCF10A(EYA2) cells (MCF10A-EYA2 cells) | effect on HUVEC cell motility (HUVECs [2]) | effect on tubulogenesis, in words (HUVECs [3]) | effect on sprouting of aortic rings (mouse aortic rings) | effect on the developing vasculature (zebrafish embryos)
CCc1oc2cc(O)ccc2c1C(=O)c1cc(Br)c(O)c(Br)c1 [6-hydroxybenzbromarone] |  |  |  |  | 30 |  |  |  |  | 
O=C(c1ccc(F)cc1)c1coc2ccc(O)cc12 [Compound 1d] | > 150 | > 150 | > 150 |  |  |  |  |  |  | 
CC(=O)c1cc(Br)c(O)c(Br)c1O [Compound 1i] | > 150 | > 150 | > 150 |  |  |  |  |  |  | 
COc1ccc(CC(=O)c2ccc(O)cc2O)cc1 [Compound 1h] | > 150 | > 150 | > 150 |  |  |  |  |  |  | 
CCCCC(=O)c1ccc(O)cc1 [Compound 1j] | > 150 | > 150 | > 150 |  |  |  |  |  |  | 
COc1ccc(C(=O)c2coc3ccc(O)cc23)cc1 [Compound 1e] | > 150 | > 150 | > 150 |  |  |  |  |  |  | 

The next lines start with results.

IC50 (Eya3(ED)) [µM] | IC50 (human EYA3) [µM] | IC50 (PTP1B) [µM] | selectivity EYA3 versus PTP1B, in words (PTP1B; pNPP hydrolysis) | Compound | half-life [1] [h] | effect on migration of MCF10A(EYA2) cells (MCF10A-EYA2 cells) | effect on HUVEC cell motility (HUVECs [2]) | effect on tubulogenesis, in words (HUVECs [3]) | effect on sprouting of aortic rings (mouse aortic rings) | effect on the developing vasculature (zebrafish embryos)
> 150 | > 150 | > 150 |  | CC(=O)c1c(C)oc2ccc(O)cc12 [Compound 1g] |  |  |  |  |  | 
> 150 | > 150 | 102 |  | COc1ccc(OC)c(C(=O)c2coc3ccc(O)cc23)c1 [Compound 1f] |  |  |  |  |  | 
 |  | 71.4 |  | CCCCc1oc2ccccc2c1C(=O)c1ccc(O)cc1 [Compound 1b] |  | significantly inhibited cell migration | attenuated HUVEC cell motility | effective only at the highest concentrations tested (7.5 μM) | shorter sprouts and significantly lower microvascular density | reduced the number of intersegmental vessels, but were less potent
> 150 | > 150 | 11.8 | preferentially inhibited PTP1B | O=C(c1cc2ccccc2o1)c1coc2ccc(O)cc12 [Compound 1c] |  | had no effect on cell motility |  |  | negligible effect | no effect on the vasculature
